Source: the supplement of paper PMC11061612

Key:
Test in all cases: combination Emax (second highest fraction inhibited in the dose matrix, 72 h); higher = more inhibition; extreme values may be limits of the assay
[1] = tested on: ALL-SIL (T-Lymphoblastic Leukemia)
Procedure, shortened: (§1)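 Cell lines grown in DMEM/F12 or RPMI with 10% FBS were plated in 1536-well plates and held 24 hours at 37°C, 5% CO2 before 72 hours of exposure to two-drug dose matrices, with DMSO typically at 0.2%. CellTiter-Glo 2.0 luminescence gave viability, which was converted to inhibition. Vehicle wells were set to 0 and blank wells to 1. Combination Emax is the second-highest inhibition in the matrix, and Bliss excess is the observed combination effect minus the expected EA + EB − EA·EB, where EA and EB are the single-agent effects.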

[2] = tested on: SKN (Other Solid Carcinomas)
Procedure, shortened: as §1

[3] = tested on: MDA-MB-453 (Breast Carcinoma)
Procedure, shortened: as §1

[4] = tested on: KOPN-8 (B-Lymphoblastic Leukemia)
Procedure, shortened: as §1

[5] = tested on: NCI-H1838 (Lung Adenocarcinoma)
Procedure, shortened: as §1

[6] = tested on: EJM (Plasma Cell Myeloma)
Procedure, shortened: as §1

[7] = tested on: MOLT-4 (T-Lymphoblastic Leukemia)
Procedure, shortened: as §1

[8] = tested on: NCI-H1993 (Lung Adenocarcinoma)
Procedure, shortened: as §1

SK-N-AS (Neuroblastoma) = tested on: SK-N-AS (Neuroblastoma)
Procedure, shortened: as §1

[9] = tested on: NCI-H1355 (Lung Adenocarcinoma)
Procedure, shortened: as §1

COLO-679 (Melanoma) = tested on: COLO-679 (Melanoma)
Procedure, shortened: as §1

[10] = tested on: NCI-H1092 (Small Cell Lung Carcinoma)
Procedure, shortened: as §1

[11] = tested on: ML-2 (Acute Myeloid Leukemia)
Procedure, shortened: as §1

[12] = tested on: HCC2998 (Colorectal Carcinoma)
Procedure, shortened: as §1

[13] = tested on: SW872 (Other Solid Carcinomas)
Procedure, shortened: as §1

[14] = tested on: SNU-387 (Hepatocellular Carcinoma)
Procedure, shortened: as §1

[15] = tested on: SW982 (Other Solid Carcinomas)
Procedure, shortened: as §1

[16] = tested on: KMRC-1 (Kidney Carcinoma)
Procedure, shortened: as §1

[17] = tested on: A4-Fuk (B-Lymphoblastic Leukemia)
Procedure, shortened: as §1

[18] = tested on: LC-1-sq (Squamous Cell Lung Carcinoma)
Procedure, shortened: as §1

SMILES | combination Emax [1] | combination Emax [2] | combination Emax [3] | combination Emax [4] | combination Emax [5] | combination Emax [6] | combination Emax [7] | combination Emax [8] | combination Emax (SK-N-AS (Neuroblastoma)) | combination Emax [9] | combination Emax (COLO-679 (Melanoma)) | combination Emax [10] | combination Emax [11] | combination Emax [12] | combination Emax [13] | combination Emax [14] | combination Emax [15] | combination Emax [16] | combination Emax [17] | combination Emax [18]
Cc1c2c(nn1C)CSCc1cc(n(C)n1)CSc1cc(c3ccccc3c1)OCCCc1c(C(=O)O)n(C)c3c-2c(Cl)ccc13 [AZD5991] + CCN(CCO)CCCOc1ccc2c(Nc3cc(CC(=O)Nc4cccc(F)c4)[nH]n3)ncnc2c1 [AZD2811] (first compound max 1 µM, 7x7, partner max 1 µM) | 1 | 0.204 | 0.75 | 0.983 | 0.447 | 0.949 | 0.941 | 0.232 | 0.808 | 0.334 | 0.42 | 0.626 | 1 | 0.94 | 0.249 | 0.458 | 0.688 | 0.194 | 1 | 0.428
COc1nnc2ccc(N3CCC(c4ccc(OCCN5CCN(C)C(=O)[C@H]5C)cc4)CC3)nn12 [AZD5153] + C=CCn1c(=O)c2cnc(Nc3ccc(N4CCN(C)CC4)cc3)nc2n1-c1cccc(C(C)(C)O)n1 [AZD1775] (first compound max 1 µM, partner max 1 µM) | 0.98 | 0.687 | 0.731 | 1 | 0.441 | 0.867 | 1 | 0.545 | 0.669 | 0.57 | 0.505 | 0.684 | 1 | 0.92 | 0.593 | 0.469 | 0.825 | 0.358 | 0.967 | 0.665
COc1cccc(OCCCN)c1-c1cc(Nc2cnc(C#N)cn2)n[nH]1 [Prexasertib] + C[C@@H]1COCCN1C2=NC(=NC(=C2)C3(CC3)[S@](=N)(=O)C)C4=C5C=CNC5=NC=C4 [AZD6738] (first compound max 1 µM, 7x7, partner max 10 µM) | 0.993 | 0.465 | 0.888 | 0.977 | 0.689 | 0.947 | 1 | 0.721 | 0.976 | 0.74 | 0.867 | 0.698 | 1 | 0.967 | 0.884 | 0.537 | 0.723 | 0.555 | 0.879 | 0.965
CCN(CCO)CCCOc1ccc2c(Nc3cc(CC(=O)Nc4cccc(F)c4)[nH]n3)ncnc2c1 [AZD2811] + C[C@@H]1COCCN1C2=NC(=NC(=C2)C3(CC3)[S@](=N)(=O)C)C4=C5C=CNC5=NC=C4 [AZD6738] (first compound max 1 µM, 7x7, partner max 10 µM) | 0.981 | 0.393 | 0.807 | 0.855 | 0.643 | 0.858 | 1 | 0.513 | 0.784 | 0.679 | 0.679 | 0.236 | 0.985 | 0.777 | 0.571 | 0.494 | 0.71 | 0.566 | 0.747 | 0.823
CN(C)CCCOc1ccc(-c2ccc3ncc4c(c3c2)n(C2CCOCC2)c(=O)n4C)cn1 [AZD0156] + CCN(CCO)CCCOc1ccc2c(Nc3cc(CC(=O)Nc4cccc(F)c4)[nH]n3)ncnc2c1 [AZD2811] (first compound max 1 µM, 7x7, partner max 1 µM) | 0.976 | 0.042 | 0.144 | 0.554 | 0.263 | 0.0982 | 0.968 | 0.288 | 0.183 | 0.216 | 0.159 | 0.181 | 0.878 | 0.183 | 0.0742 | 0.207 | 0.548 | 0.13 | 0.551 | 0.257
CN(C)CCCOc1ccc(-c2ccc3ncc4c(c3c2)n(C2CCOCC2)c(=O)n4C)cn1 [AZD0156] + C=CCn1c(=O)c2cnc(Nc3ccc(N4CCN(C)CC4)cc3)nc2n1-c1cccc(C(C)(C)O)n1 [AZD1775] (first compound max 1 µM, partner max 1 µM) | 0.742 | 0.336 | 0.192 | 0.85 | 0.465 | 0.858 | 1 | 0.586 | 0.77 | 0.532 | 0.552 | 0.301 | 1 | 0.633 | 0.267 | 0.464 | 0.71 | 0.259 | 0.816 | 0.91
COc1cccc(OCCCN)c1-c1cc(Nc2cnc(C#N)cn2)n[nH]1 [Prexasertib] + C=CCn1c(=O)c2cnc(Nc3ccc(N4CCN(C)CC4)cc3)nc2n1-c1cccc(C(C)(C)O)n1 [AZD1775] (first compound max 1 µM, partner max 1 µM) | 1 | 0.488 | 0.909 | 0.995 | 0.704 | 0.954 | 1 | 0.906 | 1 | 0.756 | 0.827 | 0.756 | 1 | 0.984 | 0.933 | 0.729 | 0.825 | 0.627 | 0.906 | 0.986
Cc1c2c(nn1C)CSCc1cc(n(C)n1)CSc1cc(c3ccccc3c1)OCCCc1c(C(=O)O)n(C)c3c-2c(Cl)ccc13 [AZD5991] + C[C@@H](Nc1cc(F)cc(F)c1)c1cc(C(=O)N(C)C)cc2c(=O)cc(N3CCOCC3)oc12 [AZD8186] (first compound max 1 µM, 7x7, partner max 3 µM) | 0.968 | 0.532 | 0.355 | 0.915 | 0.472 | 0.929 | 0.526 | 0.455 | 0.643 | 0.227 | 0.332 | 0.569 | 1 | 0.918 | 0.321 | 0.41 | 0.443 | 0.639 | 1 | 0.24
COc1cccc(OCCCN)c1-c1cc(Nc2cnc(C#N)cn2)n[nH]1 [Prexasertib] + O=C(c1cc(Cc2n[nH]c(=O)c3ccccc23)ccc1F)N1CCN(C(=O)C2CC2)CC1 [Olaparib] (first compound max 1 µM, 7x7, partner max 10 µM) | 0.992 | 0.439 | 0.776 | 0.961 | 0.46 | 0.969 | 1 | 0.845 | 0.995 | 0.746 | 0.851 | 0.67 | 1 | 0.957 | 0.937 | 0.542 | 0.767 | 0.558 | 0.919 | 0.956
COc1nnc2ccc(N3CCC(c4ccc(OCCN5CCN(C)C(=O)[C@H]5C)cc4)CC3)nn12 [AZD5153] + Cc1c2c(nn1C)CSCc1cc(n(C)n1)CSc1cc(c3ccccc3c1)OCCCc1c(C(=O)O)n(C)c3c-2c(Cl)ccc13 [AZD5991] (first compound max 1 µM, 7x7, partner max 1 µM) | 0.984 | 0.568 | 0.953 | 1 | 0.731 | 0.89 | 0.95 | 0.552 | 0.739 | 0.358 | 0.874 | 0.865 | 1 | 1 | 0.697 | 0.614 | 0.771 | 0.322 | 1 | 0.771
CN(C)CCCOc1ccc(-c2ccc3ncc4c(c3c2)n(C2CCOCC2)c(=O)n4C)cn1 [AZD0156] + O=C(c1cc(Cc2n[nH]c(=O)c3ccccc23)ccc1F)N1CCN(C(=O)C2CC2)CC1 [Olaparib] (first compound max 3 µM, partner max 3 µM) | 0.175 | 0.188 | 0.286 | 0.78 | 0.21 | 0.341 | 0.636 | 0.498 | 0.169 | 0.305 | 0.225 | 0.304 | 0.478 | 0.257 | 0.272 | 0.405 | 0.4 | 0.151 | 0.553 | 0.184
CC1(C)CCC(CN2CCN(c3ccc(C(=O)NS(=O)(=O)c4ccc(NCC5CCOCC5)c([N+](=O)[O-])c4)c(Oc4cnc5[nH]ccc5c4)c3)CC2)=C(c2ccc(Cl)cc2)C1 [Venetoclax] + C1CN(CCC1(C(=O)N[C@@H](CCO)C2=CC=C(C=C2)Cl)N)C3=NC=NC4=C3C=CN4 [Capivasertib] (first compound max 1 µM, 7x7, partner max 3 µM) | 0.687 | 0.42 | 0.463 | 0.824 | 0.283 | 0.255 | 0.718 | 0.5 | 0.203 | 0.268 | 0.146 | 0.354 | 0.933 | 0.298 | 0.152 | 0.23 | 0.256 | 0.368 | 0.724 | 0.198
NC1(C(=O)N[C@@H](CCO)c2ccc(Cl)cc2)CCN(c2ncnc3[nH]ccc23)CC1 [Capivasertib] + CC(=O)c1c(C)c2cnc(Nc3ccc(N4CCNCC4)cn3)nc2n(C2CCCC2)c1=O [Palbociclib] (first compound max 10 µM, 7x7, partner max 10 µM) | 0.46 | 0.639 | 0.589 | 0.809 | 0.432 | 0.391 | 0.736 | 0.647 | 0.351 | 0.472 | 0.324 | 0.177 | 0.593 | 0.591 | 0.413 | 0.312 | 0.607 | 0.457 | 0.722 | 0.206
